In brackets after ≈: the same amount, converted by molar mass.
Columns and labels:
Format in all cases: functional
Human alphaherpesvirus 1 [1] = assay: Minimum inhibitory concentration required to inhibit Herpes simplex virus type 1 (strain 377) induced cytopathogenic effects by 50%.
Human alphaherpesvirus 1 [2] = assay: The compound was tested in vitro for anti viral activity against Herpes simplex virus type 1 (strain 377)
P388 = assay: Tested for inhibitory activity against P-388 leukemia cells; conditions: Mus musculus, read-out: ED50 (the source's name)
Human alphaherpesvirus 2 [3] = assay: Minimum inhibitory concentration required to inhibit Herpes simplex virus type 2 (strain MS) induced cytopathogenic effects by 50%.
Homo sapiens [4] = organism: Homo sapiens; assay: Cytotoxicity was determined at 100 uM
Homo sapiens [5] = organism: Homo sapiens; assay: Antiviral activity against Varicella-Zoster virus (VV) in human foreskin cell cultures in virus plaque reduction assay at 32 uM
Homo sapiens [6] = organism: Homo sapiens; assay: Antiviral activity against Varicella-Zoster virus (VV) in human foreskin cell cultures in virus plaque reduction assay at 320 uM
Homo sapiens [7] = organism: Homo sapiens; assay: Antiviral activity against Varicella-Zoster virus (VV) in human foreskin cell cultures in virus plaque reduction assay at 10 uM
Homo sapiens [8] = organism: Homo sapiens; assay: Antiviral activity against Varicella-Zoster virus (VV) in human foreskin cell cultures in virus plaque reduction assay at 100 uM
Homo sapiens [9] = organism: Homo sapiens; assay: Antiviral activity against Varicella-Zoster virus (VV) in human foreskin cell cultures in virus plaque reduction assay at 3.2 uM
Human alphaherpesvirus 2 [10] = assay: The compound was tested in vitro for anti viral activity against Herpes simplex virus type 2 (strain MS)
Homo sapiens [11] = organism: Homo sapiens; assay: Cytotoxicity was determined at 32 uM
Human alphaherpesvirus 2 [12] = assay: The compound was tested in vitro for definite and significant anti viral activity against Herpes simplex virus type 2 (strain MS) (experiment 2); value indicates definite and significant antiviral activity
Human alphaherpesvirus 2 [13] = assay: Minimum inhibitory concentration required to inhibit Herpes simplex virus type 2 (strain MS) induced cytopathogenic effects by 50%. (experiment 2); conditions: Human alphaherpesvirus 2, MS
Human alphaherpesvirus 1 [14] = assay: The compound was tested in vitro for definite and significant anti viral activity against Herpes simplex virus type 1 (strain 377) (experiment 1); value indicates definite and significant antiviral activity
Human alphaherpesvirus 1 [15] = assay: The compound was tested in vitro for definite and significant anti viral activity against Herpes simplex virus type 1 (strain 377) (experiment 2); value indicates definite and significant antiviral activity
Human alphaherpesvirus 2 [16] = assay: Minimum inhibitory concentration required to inhibit Herpes simplex virus type 2 (strain MS) induced cytopathogenic effects by 50%. (experiment 1); conditions: Human alphaherpesvirus 2, MS
Human alphaherpesvirus 2 [17] = assay: The compound was tested in vitro for definite and significant anti viral activity against Herpes simplex virus type 2 (strain MS) (experiment 1); value indicates definite and significant antiviral activity
Human alphaherpesvirus 1 [18] = assay: Minimum inhibitory concentration required to inhibit Herpes simplex virus type 1 (strain 377) induced cytopathogenic effects by 50%. (experiment 2)
Human alphaherpesvirus 1 [19] = assay: Minimum inhibitory concentration required to inhibit Herpes simplex virus type 1 (strain 377) induced cytopathogenic effects by 50%. (experiment 1)

Nc1nc(Cl)c2nnn(C3CC(CO)C(O)C3O)c2n1 (centres undefined)
MIC50 (Human alphaherpesvirus 1 [1]): 100 µg/mL (≈ 333 µM)
Virus rating (Human alphaherpesvirus 1 [2]): 0.6
EC50 (P388): 50 µM

Nc1nc(Cl)c2ncn(C3CC(CO)C(O)C3O)c2n1 (centres undefined)
MIC50 (Human alphaherpesvirus 1 [1]): 100 µg/mL (≈ 334 µM)
Virus rating (Human alphaherpesvirus 1 [2]): 1.8
EC50 (P388): 220 µM

Nc1ncnc2c1ncn2[C@@H]1O[C@H](CO)[C@@H](O)[C@@H]1O [VIDARABINE]
MIC50 (Human alphaherpesvirus 2 [3]): 30 µg/mL (≈ 112 µM)
Cytotoxicity (Homo sapiens [4]): 0
MIC50 (Human alphaherpesvirus 1 [1]): 9.8 µg/mL (≈ 36.7 µM)
Reduction (Homo sapiens [5]): 97%
Reduction (Homo sapiens [6]): 100%
Virus rating (Human alphaherpesvirus 1 [2]): 3.1
Reduction (Homo sapiens [7]): 44%
Reduction (Homo sapiens [8]): 97%
Reduction (Homo sapiens [9]): 18%
Virus rating (Human alphaherpesvirus 2 [10]): 2.3
Cytotoxicity (Homo sapiens [11]): 0

Nc1nc(N)c2ncn(C3CC(CO)C(O)C3O)c2n1 (centres undefined)
MIC50 (Human alphaherpesvirus 1 [1]): 85 µg/mL (≈ 303 µM)
Virus rating (Human alphaherpesvirus 1 [2]): 2.7
EC50 (P388): 39 µM

Nc1nc(O)c2nnn(C3CC(CO)C(O)C3O)c2n1 (centres undefined)
Virus rating (Human alphaherpesvirus 2 [12]): 1.1
MIC50 (Human alphaherpesvirus 2 [13]): 240 µg/mL (≈ 852 µM)
Virus rating (Human alphaherpesvirus 1 [14]): 2.4
EC50 (P388): 1.6 µM
Virus rating (Human alphaherpesvirus 1 [15]): 2.5
MIC50 (Human alphaherpesvirus 2 [16]): 92.2 µg/mL (≈ 327 µM)
Virus rating (Human alphaherpesvirus 2 [17]): 1.3
MIC50 (Human alphaherpesvirus 1 [18]): 93.1 µg/mL (≈ 330 µM)
MIC50 (Human alphaherpesvirus 1 [19]): 60.8 µg/mL (≈ 215 µM)
